Results: paper PMC11012124, “Synthesis of Novel Triazine-Based Chalcones and 8,9-dihydro-7H-pyrimido[4,5-b][1,4]diazepines as Potential Leads in the Search of Anticancer, Antibacterial and Antifungal Agents” (International Journal of Molecular Sciences, 2024)
Converted amounts (≈) assume the structure as drawn.

Columns and labels:
[1] = tested on: N. gonorrhoeae ATCC 49226; experiment: MIC on GC agar plates; format: cell-based, Neisseria gonorrhoeae; conditions: Neisseria gonorrhoeae, ATCC49226, read-out: MIC
Procedure, shortened: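 N. gonorrhoeae (1 × 10^4 CFU) was spotted onto IsoVitaleX-supplemented (1%) GC agar containing graded compound levels. The lowest inhibitory concentration was recorded as the MIC, with oxidase testing used to verify growth, and each assay was done in duplicate on at least two separate occasions.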

CCRF-CEM = experiment: cells; conditions: Homo sapiens, 48 h; for CC50: read-out: LC50
HL-60(TB) = experiment: cells; conditions: Homo sapiens, HL-60, 48 h; for CC50: read-out: LC50
K-562 = experiment: cells; conditions: Homo sapiens, K562, 48 h; for GI50: K-562, 48 h; for CC50: read-out: LC50
SR = experiment: cells; conditions: Homo sapiens, 48 h; for CC50: read-out: LC50
NCI-H460 = experiment: cells; conditions: Homo sapiens, NCI-H460, 48 h; for CC50: read-out: LC50
NCI-H522 = experiment: cells; conditions: Homo sapiens, NCI-H522, 48 h; for CC50: read-out: LC50
KM12 = experiment: cells; conditions: Homo sapiens, KM12, 48 h; for CC50: read-out: LC50
SW-620 = experiment: cells; conditions: Homo sapiens, SW-620, 48 h; for CC50: read-out: LC50
MALME-3M = experiment: cells; conditions: Homo sapiens, 48 h
MDA-MB-435 = experiment: cells; conditions: Homo sapiens, MDA-MB-435, 48 h; for CC50: read-out: LC50
SK-MEL-2 = experiment: cells; conditions: Homo sapiens, SK-MEL-2, 48 h; for CC50: read-out: LC50
SK-MEL-28 = experiment: cells; conditions: Homo sapiens, SK-MEL-28, 48 h; for CC50: read-out: LC50
IGROV1 = experiment: cells; conditions: Homo sapiens, IGROV-1, 48 h
OVCAR-4 = experiment: cells; conditions: Homo sapiens, OVCAR-4, 48 h; for CC50: read-out: LC50
OVCAR-5 = experiment: cells; conditions: Homo sapiens, OVCAR-5, 48 h; for CC50: read-out: LC50
OVCAR-8 = experiment: cells; conditions: Homo sapiens, OVCAR-8, 48 h; for CC50: read-out: LC50
NCI/ADR-RES = experiment: cells; conditions: Homo sapiens, 48 h; for CC50: read-out: LC50
SK-OV-3 = experiment: cells; conditions: Homo sapiens, SK-OV-3, 48 h; for CC50: read-out: LC50
CAKI-1 = experiment: cells; conditions: Homo sapiens, CAKI-1, 48 h; for CC50: read-out: LC50
SN12C = experiment: cells; conditions: Homo sapiens, 48 h; for CC50: read-out: LC50
TK-10 = experiment: cells; conditions: Homo sapiens, TK-10, 48 h; for CC50: read-out: LC50
DU-145 = experiment: cells; conditions: Homo sapiens, DU-145, 48 h; for CC50: read-out: LC50
MCF7 = experiment: cells; conditions: Homo sapiens, MCF7, 48 h; for CC50: read-out: LC50
T-47D = experiment: cells; conditions: Homo sapiens, T47D, 48 h; for CC50: read-out: LC50
[2] = Hemolytic activity, spectrophotometric; format: cell-based, human; conditions: human, human red blood cells (huRBC), 5% hematocrit, 200 μg/mL, 37 °C

Cc1ccc(C2CC(c3ccc(Nc4nc(NCCO)nc(Nc5ccc(Cl)cc5)n4)cc3)=Nc3c(N)nc(N)nc3N2)cc1 (stereo not shown) [33b] gave an MIC [1] of 0.5 µg/mL (≈ 0.802 µM), a GI50 (CCRF-CEM) of 1.67 µM and a CC50 (CCRF-CEM) of over 100 µM. For the same compound, the GI50 (HL-60(TB)) was 1.71 µM, the CC50 (HL-60(TB)) was over 100 µM and the GI50 (K-562) was 1.34 µM. It also gave a CC50 (K-562) of 24.9 µM, a GI50 (SR) of 1.68 µM and a CC50 (SR) of over 100 µM. It also gave a GI50 (NCI-H460) of 1.8 µM, a CC50 (NCI-H460) of 6.41 µM and a GI50 (NCI-H522) of 1.72 µM. For the same compound, the CC50 (NCI-H522) was 7.03 µM, the GI50 (KM12) was 1.97 µM and the CC50 (KM12) was 7.54 µM. It also gave a GI50 (SW-620) of 1.79 µM, a CC50 (SW-620) of 6.12 µM and a GI50 (MALME-3M) of 1.7 µM. For the same compound, the CC50 (MALME-3M; read-out: LC50) was 6.69 µM, the GI50 (MDA-MB-435) was 1.73 µM and the CC50 (MDA-MB-435) was 5.68 µM. The GI50 (SK-MEL-2) was 1.81 µM, the CC50 (SK-MEL-2) was 6.4 µM and the GI50 (SK-MEL-28) was 1.77 µM. For the same compound, the CC50 (SK-MEL-28) was 5.65 µM, the GI50 (IGROV1) was 1.65 µM and the CC50 (IGROV1; read-out: LC50) was 5.98 µM. It also gave a GI50 (OVCAR-4) of 1.85 µM, a CC50 (OVCAR-4) of 7.14 µM and a GI50 (OVCAR-5) of 1.62 µM. The CC50 (OVCAR-5) was 5.59 µM, the GI50 (OVCAR-8) was 1.8 µM and the CC50 (OVCAR-8) was 7.55 µM. It also gave a GI50 (NCI/ADR-RES) of 1.73 µM, a CC50 (NCI/ADR-RES) of 6.97 µM and a GI50 (SK-OV-3) of 2.69 µM. It also gave a CC50 (SK-OV-3) of 25.6 µM, a GI50 (CAKI-1) of 1.64 µM and a CC50 (CAKI-1) of 5.73 µM. For the same compound, the GI50 (SN12C) was 1.79 µM, the CC50 (SN12C) was 6.39 µM and the GI50 (TK-10) was 1.9 µM. It also gave a CC50 (TK-10) of 6.02 µM, a GI50 (DU-145) of 1.76 µM and a CC50 (DU-145) of 5.77 µM. For the same compound, the GI50 (MCF7) was 1.46 µM, the CC50 (MCF7) was 6.22 µM and the GI50 (T-47D) was 1.67 µM. It also gave a CC50 (T-47D) of 8.01 µM.

Work on Nc1nc(N)c2c(n1)NC(c1ccc(F)cc1)CC(c1ccc(Nc3nc(NCCO)nc(Nc4ccc(Cl)cc4)n3)cc1)=N2 (stereo not shown) [33f] yielded an MIC [1] of 1 µg/mL (≈ 1.59 µM), a hemolysis at 24 h, 200 µg/mL [2] of 5% and a GI50 (CCRF-CEM) of 0.754 µM. It also gave a CC50 (CCRF-CEM) of over 100 µM, a GI50 (HL-60(TB)) of 0.863 µM and a CC50 (HL-60(TB)) of over 100 µM. It also gave a GI50 (K-562) of 0.489 µM, a CC50 (K-562) of over 100 µM and a GI50 (SR) of 0.672 µM. The CC50 (SR) was over 100 µM, the GI50 (NCI-H460) was 1.71 µM and the CC50 (NCI-H460) was 7.73 µM. For the same compound, the GI50 (NCI-H522) was 1.43 µM, the CC50 (NCI-H522) was 6.16 µM and the GI50 (KM12) was 1.68 µM. It also gave a CC50 (KM12) of 8.22 µM, a GI50 (SW-620) of 1.6 µM and a CC50 (SW-620) of 6.68 µM. The GI50 (MALME-3M) was 1.66 µM, the GI50 (MDA-MB-435) was 1.7 µM and the CC50 (MDA-MB-435) was 7.42 µM. The GI50 (SK-MEL-2) was 1.67 µM, the CC50 (SK-MEL-2) was 5.75 µM and the GI50 (SK-MEL-28) was 1.7 µM. For the same compound, the CC50 (SK-MEL-28) was 5.93 µM, the GI50 (IGROV1) was 1.7 µM and the GI50 (OVCAR-4) was 1.93 µM. The CC50 (OVCAR-4) was over 100 µM, the GI50 (OVCAR-5) was 5.1 µM and the CC50 (OVCAR-5) was over 100 µM. It also gave a GI50 (OVCAR-8) of 1.16 µM, a CC50 (OVCAR-8) of 6.81 µM and a GI50 (NCI/ADR-RES) of 7.73 µM. It also gave a CC50 (NCI/ADR-RES) of over 100 µM, a GI50 (SK-OV-3) of 12.9 µM and a CC50 (SK-OV-3) of 50.5 µM. The GI50 (CAKI-1) was 6.14 µM, the CC50 (CAKI-1) was over 100 µM and the GI50 (SN12C) was 2.08 µM. For the same compound, the CC50 (SN12C) was over 100 µM, the GI50 (TK-10) was 4.61 µM and the CC50 (TK-10) was 45.5 µM. It also gave a GI50 (DU-145) of 1.75 µM, a CC50 (DU-145) of 7 µM and a GI50 (MCF7) of 0.956 µM. It also gave a CC50 (MCF7) of 6 µM, a GI50 (T-47D) of 1.27 µM and a CC50 (T-47D) of 8.09 µM.
